Data: article PMC6199744, “Development of Chemical Proteomics for the Folateome and Analysis of the Kinetoplastid Folateome” (ACS Infectious Diseases, 2018)
Several values for one entry are separate records, joined by “and”; a condition that tells them apart may be missing. Equal values may be shown once. Read-outs that look alike come from different tables or passages of the source.

Test system: L. major lysate proteins
Experiment: Multitargeted bead mixture chemoproteomics, single concentration competition, proteome-wide
Assay type: binding
Conditions: for fold change / fold change relative to vehicle control: vehicle control = 1; for fold change relative to vehicle control: competition with free ligand

Compound: CCCCCCOc1cccc(Cc2cnc(N)nc2N)c1 [compound 2]
- fold change vs vehicle control: 1.17 and 1.18 and 1.07 and 1.04
- fold change (LINJ.05.0500 ATPASE ALPHA SUBUNIT): 1.11
- fold change (LINJ.36.4570 PROTEASOME REGULATORY ATPASE SUBUNIT): 0.65
- fold change (LMJF.10.0510 GLYCEROL-3-PHOSPHATE DEH[…] ], GLYCOSOMAL): 1.02
- fold change (LMJF.16.1610 PROHIBITIN): 1.14
- fold change (LMJF.18.1370 HEAT SHOCK PROTEIN, PUTATIVE): 1.03
- fold change (LMJF.19.0300 RNA BINDING PROTEIN, PUTATIVE): 0.93
- fold change (LMJF.21.0760 […]-ATP-ASE SUBUNIT 5, PUTATIVE): 0.91
- fold change (LMJF.22.0410 HY[…], CONSERVED): 0.85
- fold change (LMJF.25.1770 ENOYL-COA REDUCTASE, PUTATIVE): 1.1
- fold change (LMJF.26.0300 AMINOPEPTIDASE-LIKE PROTEIN): 0.85
- fold change (LMJF.26.2560 HY[…], CONSERVED): 1.08
- fold change (LMJF.27.1810 GLYCOSOMAL PHOSPHOENOLPYRUVATE CARBOXYKINASE, PUTATIVE): 1.17
- fold change (LMJF.28.0490 PROPIONYL-COA CARBOXYLASE BETA CHAIN, PUTATIVE): 0.63
- fold change (LMJF.29.0940 HY[…], CONSERVED): 1.21
- fold change (LMJF.29.1310 CARNITINE/CHOLINE ACETYLTRANSFERASE, PUTATIVE): 1.04
- fold change (LMJF.29.1470 HY[…], CONSERVED): 1.11
- fold change (LMJF.29.2440 HYPOTHETICAL PROTEIN, CONSERVED): 1
- fold change (LMJF.30.2350 SPHINGOSINE 1-PHOSPHATE LYASE): 1.12
- fold change (LMJF.30.2970 GLYCERALDEHYDE 3-PHOSPHATE DEHYDROGENASE, GLYCOSOMAL): 1.11
- fold change (LMJF.30.3390 CAS/CSE/IMPORTIN DOMAIN PROTEIN, PUTATIVE): 0.9
- fold change (LMJF.31.2650 ACETOIN DEHYDROGENASE E3 COMPONENT-LIKE PROTEIN): 1.02
- fold change (LMJF.31.2970 ACETYL-COA CARBOXYLASE, PUTATIVE): 0.91
- fold change (LMJF.33.1030 HYPOTHETICAL PROTEIN, CONSERVED): 0.95
- fold change (LMJF.35.5040 polyadenylate-binding protein 1): 1.22
- fold change (LMJF.35.5250 ALPHA-1,2-MANNOSYLTRANSFERASE, PUTATIVE): 0.99
- fold change (LMJF.36.5100 HY[…], CONSERVED): 1.03
- fold change (LMJF.[…] RIBOSOMAL PROTEIN S7, PUTATIVE): 1.35
- fold change vs vehicle control (protein LINJ.03.0940 HY[…], CONSERVED): 1.19
- fold change vs vehicle control (protein LINJ.09.0030 HYPOTHETICAL PROTEIN, CONSERVED): 0.91
- fold change relative to vehicle control (protein LINJ.11.0780 40S RIBOSOMAL PROTEIN S21, PUTATIVE): 1.25
- fold change (protein LINJ.13.0990 […] SUBUNIT 2, PUTATIVE): 1.04
- fold change vs vehicle control (protein LINJ.13.1460 ALPHA TUBULIN): 1.06
- fold change (protein LINJ.15.0090 HEAT SHOCK PROTEIN HSLVU, ATPASE SUBUNIT HSLU, PUTATIVE): 1.01
- fold change relative to vehicle control (protein LINJ.16.1380 CYTOCHROME C, PUTATIVE): 1.41
- fold change vs vehicle control (protein LINJ.19.0300 RNA BINDING PROTEIN): 1.2
- fold change (protein LINJ.20.0630 CYTIDINE TR[…], PUTATIVE): 1.24
- fold change relative to vehicle control (protein LINJ.20.1390 COATOMER BETA SUBUNIT, PUTATIVE): 1.31
- fold change vs vehicle control (protein LINJ.21.1310 40S RIBOSOMAL PROTEIN S23, PUTATIVE): 1.12
- fold change vs vehicle control (protein LINJ.23.1680 HY[…], CONSERVED): 1.11
- fold change vs vehicle control (protein LINJ.25.1170 […] OXIDASE VII, PUTATIVE): 1.03
- fold change relative to vehicle control (protein LINJ.25.1220 RIBOSOMAL PROTEIN S25): 1.24
- fold change vs vehicle control (protein LINJ.26.1080 HY[…], CONSERVED): 1.11
- fold change vs vehicle control (protein LINJ.27.1140 HY[…], CONSERVED): 1.05
- fold change vs vehicle control (protein LINJ.28.1100 RIBOSOMAL PROTEIN S20, PUTATIVE): 1.04
- fold change relative to vehicle control (protein LINJ.28.1940 REPLICATION FACTOR A, 51KDA SUBUNIT, PUTATIVE): 1.28
- fold change (protein LINJ.31.2350 ADP-RI[…], PUTATIVE): 1.11
- fold change vs vehicle control (protein LINJ.34.0670 […]-ATP-ASE SUBUNIT 11, PUTATIVE): 1.17
- fold change (protein LINJ.35.0410 40S RIBOSOMAL PROTEIN S3A, PUTATIVE): 1.2
- fold change relative to vehicle control (protein LINJ.35.0780 CBS DOMAIN PROTEIN, CONSERVED): 0.96
- fold change vs vehicle control (protein LINJ.36.0510 HY[…], CONSERVED): 1.08
- fold change vs vehicle control (protein LINJ.36.3940 40S RIBOSOMAL PROTEIN S27-1, PUTATIVE): 0.95
- fold change (protein LINJ.36.4180 HS1VU COMPLEX PROTEOLYTIC SUBUNIT-LIKE): 0.97
- fold change (protein LINJ.36.7350 […] OXIDASE SUBUNIT I): 1.03
- fold change (protein LMJF.01.0520 LONG-CHAIN-FATTY-ACID-COA LIGASE, PUTATIVE): 0.98
- fold change vs vehicle control (protein LMJF.02.0460 HY[…], CONSERVED): 1.06
- fold change vs vehicle control (protein LMJF.03.0230 LONG CHAIN FATTY ACYL COA SYNTHETASE, PUTATIVE): 1.18
- fold change vs vehicle control (protein LMJF.03.0630 HYPOTHETICAL PROTEIN, CONSERVED): 1
- fold change (protein LMJF.05.0780 HY[…], CONSERVED): 1.13
- fold change (protein LMJF.06.0010 HISTONE H4): 1.16
- fold change (protein LMJF.06.0140 PROTEASOME BETA 6 SUBUNIT, PUTATIVE): 0.93
- fold change (protein LMJF.06.0650 […], PUTATIVE): 1.08
- fold change vs vehicle control (protein LMJF.08.0510 RIBOSE-PHOSPHATE PYROPHOSPHOKINASE, PUTATIVE): 1.01
- fold change vs vehicle control (protein LMJF.08.0550 TRANSLATION INITIATION FACTOR-LIKE PROTEIN): 1.1
- fold change vs vehicle control (protein LMJF.08.1100 HY[…], CONSERVED): 1.08
- fold change relative to vehicle control (protein LMJF.09.1120 MITOCHONDRIAL RNA BINDING PROTEIN 2,MRP2, GBP25): 1
- fold change vs vehicle control (protein LMJF.09.1260 HY[…], CONSERVED): 1.11
- fold change (protein LMJF.10.1010 NUCLEOSIDE PHOSPHORYLASE-LIKE PROTEIN): 0.94
- fold change (protein LMJF.10.1240 HYPOTHETICAL PROTEIN, CONSERVED): 0.79
- fold change vs vehicle control (protein LMJF.11.0130 NGG1 I[…] 3-LIKE PROTEIN): 1.06
- fold change vs vehicle control (protein LMJF.11.0240 […] 7 SUBUNIT, PUTATIVE): 1.02
- fold change (protein LMJF.11.1050 PRETRA[…], ALPHA SUBUNIT, PUTATIVE): 1.27
- fold change vs vehicle control (protein LMJF.11.1110 60S RIBOSOMAL PROTEIN L28, PUTATIVE): 1.71
- fold change vs vehicle control (protein LMJF.12.0210 […] […]1L8 3, PUTATIVE): 0.96
- fold change vs vehicle control (protein LMJF.12.0280 ORNITHINE DECARBOXYLASE, PUTATIVE): 0.92
- fold change vs vehicle control (protein LMJF.13.0450 HYPOTHETICAL PROTEIN, CONSERVED): 0.94
- fold change vs vehicle control (protein LMJF.13.0870 MIT[…] ALPHA SUBUNIT, PUTATIVE): 1.12
- fold change vs vehicle control (protein LMJF.14.0130 INOSINE-GUANINE NUCLEOSIDE HYDROLASE, PUTATIVE): 1
- fold change (protein LMJF.14.0310 PROTEASOME ALPHA 3 SUBUNIT, PUTATIVE): 0.96
- fold change (protein LMJF.14.0650 FATTY ACID ELONGASE, PUTATIVE): 1.09
- fold change (protein LMJF.14.0660 FATTY ACID ELONGASE, PUTATIVE): 1.14
- fold change (protein LMJF.14.0705 FATTY ACID ELONGASE, PUTATIVE): 0.94
- fold change (protein LMJF.14.0740 FATTY ACID ELONGASE, PUTATIVE): 1.13
- fold change relative to vehicle control (protein LMJF.14.1120 KINESIN K39, PUTATIVE): 1.12
- fold change vs vehicle control (protein LMJF.15.0230 LYSYL-TRNA SYNTHETASE, PUTATIVE): 1.06
- fold change vs vehicle control (protein LMJF.15.0280 RIBONUCLEOPROTEIN P18, MIT[…], PUTATIVE): 1.12
- fold change (protein LMJF.15.1010 GLUTAMATE DEHYDROGENASE): 1.12
- fold change relative to vehicle control (protein LMJF.16.0520 HYPOTHETICAL PROTEIN, CONSERVED): 2.05
- fold change (protein LMJF.16.0540 ASPARTATE […], PUTATIVE): 1.05
- fold change vs vehicle control (protein LMJF.16.0950 SUCROSE-PHOSPHATE SYNTHASE-LIKE PROTEIN): 1.27
- fold change vs vehicle control (protein LMJF.16.0960 HYPOTHETICAL PROTEIN, CONSERVED): 0.64
- fold change (protein LMJF.16.1180 COATOMER DELTA SUBUNIT-LIKE PROTEIN): 1.05
- fold change (protein LMJF.17.0010 HYPOTHETICAL PROTEIN, CONSERVED): 0.79
- fold change vs vehicle control (protein LMJF.18.0510 ACONITASE, PUTATIVE): 1.1
- fold change vs vehicle control (protein LMJF.18.0890 RAB7 GTP BINDING PROTEIN, PUTATIVE): 0.93
- fold change (protein LMJF.18.1130 RAS-RELATED PROTEIN RAB-5, PUTATIVE): 0.97
- fold change (protein LMJF.19.1120 […]-ATP-ASE SUBUNIT, PUTATIVE): 1.02
- fold change vs vehicle control (protein LMJF.19.1160 HY[…], CONSERVED): 1.14
- fold change vs vehicle control (protein LMJF.19.1530 PEPT[…]-LIKE PROTEIN): 1.05
- fold change (protein LMJF.20.0100 PHOSPH[…] C, GLYCOSOMAL): 1.08
- fold change vs vehicle control (protein LMJF.21.0720 HY[…], CONSERVED): 1.29
- fold change (protein LMJF.21.1250 ADENYLATE KINASE, PUTATIVE): 0.9
- fold change (protein LMJF.21.1555 HY[…], CONSERVED): 1.14
- fold change (protein LMJF.21.1580 HY[…], UNKNOWN FUNCTION): 1.22
- fold change vs vehicle control (protein LMJF.21.1700 […] 2 SUBUNIT, PUTATIVE): 1.01
- fold change (protein LMJF.22.0230 AMINO ACID PERMEASE, PUTATIVE): 1.51
- fold change (protein LMJF.22.0570 PROTEASOME REGULATORY ATPASE SUBUNIT 1, PUTATIVE): 1.1
